Converted amounts (≈) assume the structure as drawn. Read-outs that look alike come from different tables or passages of the source.
Legend:
[1] = test system: S. cerevisiae (ATCC 9080); experiment: Disk diffusion antimicrobial test, S. cerevisiae; assay type: cell-based; settings: Saccharomyces cerevisiae, ATCC9080, yeast, 20 mg per disc (title), concentration 20 µg (footnote)
Procedure: (§1) The newly synthesized compounds were chosen to be evaluated in vitro towards a variety of pathogenic microorganisms; Gram-positive bacteria: S. aureus (ATCC 6538) and B. subtilis (ATCC 6633); Gram-negative bacteria: P. areuginosa (ATCC 27853) and E. coli (DSMZ 1058); yeast: C. albicans (ATCC 10231) and S. cerevisiae (ATCC 9080) and fungi: A. niger (NRRL A-326) using the disk diffusion method at a single dose of 20 µl. The results are shown in Table 1 as the growth inhibition zone (mm).
(§2) The antimicrobial activity of target compounds were evaluated to be in vitro against a variety of pathogenic microorganisms, namely Staphylococcus aureus (ATCC 6538), Bacillus subtilis (ATCC 6633) (Gram-positive bacteria), Pseudomonas areuginosa (ATCC 27853), Escherichia coli (DSMZ 1058) (Gram-negative bacteria), Candida albicans (ATCC 10231), Saccharomyces cerevisiae (ATCC 9080) (Yeast) and Aspergillus niger (NRRL A-326) (Fungi) using the disk diffusion method at a single dose of 20 µg. The microorganisms were served and obtained from the Microbial Biotechnology Department, National Research Center, Giza, Egypt. Amphotericin, amoxicillin and ciprofloxacin were used as reference drugs (Oxoid™ Disks). The tested compounds 11a–c, 12a–c, 13a–i, 14a–i and 15a,b were dissolved in dimethylsulphoxide (DMSO) at a concentration of 1 mg/mL. Aliquots of 20 μl were soaked on filter paper discs (6 mm) and dried at room temperature under sterilized conditions. The paper discs were placed on inoculated agar plats and then incubated for 24 h at 37 °C for bacterial strains and after 48–72 h incubation at 30 °C for fungi. Both bacterial and yeast strains were grown on nutrient agar medium (g/l): beef extract, 3; peptone, 10 and agar, 20 at pH of 7.2. The fungal strain was grown on Czapek-Dox medium (g/l): sucrose, 30; NaNO3, 3; MgSO4.7H2O, 0.5l; KCl, 0.5; FeSO4, 0.01; K2HPO4, 1 and agar, 20 at pH of 6.0.

A. niger (NRRL A-326) = experiment: Disk diffusion antimicrobial test, A. niger; assay type: cell-based; settings: Aspergillus niger, fungi, 20 mg per disc (title), concentration 20 µg (footnote)
Procedure: as §1, §2

C. albicans (ATCC 10231) = experiment: Disk diffusion antimicrobial test, C. albicans; assay type: cell-based, Candida albicans; settings: yeast, 20 mg per disc (title), concentration 20 µg (footnote); for zone of inhibition at 20 µg/disc: Candida albicans, ATCC10231, disk diffusion
Procedure: as §1, §2

B. subtilis (ATCC 6633) = experiment: Disk diffusion antimicrobial test, B. subtilis; assay type: cell-based, Bacillus subtilis; settings: 20 mg per disc (title), concentration 20 µg (footnote); for zone of inhibition at 20 µg/disc: Bacillus subtilis, ATCC6633, Gram-positive
Procedure: as §1, §2

S. aureus (ATCC 6538) = experiment: Disk diffusion antimicrobial test, S. aureus; assay type: cell-based, Staphylococcus aureus; settings: 20 mg per disc (title), concentration 20 µg (footnote); for zone of inhibition at 20 µg/disc: Staphylococcus aureus, ATCC6538, Gram-positive
Procedure: as §1, §2

[2] = DPPH free radical scavenging assay; assay type: biochemical; settings: concentration of 20µg/l, mean ± SD of three experiments
Procedure: Antioxidant activity of the newly synthesized 13a–i, 14a–i, 11a–c and 12a–c were assessed in terms of hydrogen-donating or radical-scavenging ability via the stable free radical 1,1-diphenyl-2-picrylhydrazyl (DPPH) using ascorbic acid as a reference at a concentration of […].
The free radical scavenging activity (RSA) was assessed spectrophotometically at 517 nm via decoloration of the solution of the DPPH (1,1-diphenyl-2-picrylhydrazyl) radical according to Brand-Williams et al. 1995 [32]. DPPH solution was prepared by dissolving of 20 mg of DPPH in one liter of dimethylsulphoxide (DMSO). A freshly prepared DPPH solution was used for the assay. Each of the tested compounds 11a–c, 12a–c, 13a–i, 14a–i and 15a,b were dissolved in DMSO (1mg/mL). A volume of […] of a DMSO stock solution of the test compounds was added to 2 mL of freshly prepared DPPH in DMSO solution. The mixtures were shaken in a vortex (2500 rpm) for 1 min and then left to stand for 15, 30, 45 and 60 min in the dark room. The absorbance was measured at 517 nm against blank using UV visible spectrophotometer 2401 PC (Shimadzu, Kyoto, Japan). Lower absorbance of the reaction mixture indicated higher free radical scavenging activity was analyzed from the graph plots of the inhibition percentage against the compound concentration. The experiment was carried out in triplicate and averaged. The scavenging activity was calculated according to the following formula:Scavenging ability (%) = (A517 of control - A517of sample / A 517 of control) ×100(1)

[3] = test system: HCT-116 (human colon cancer); experiment: MTT cytotoxicity assay, HCT-116; assay type: cell-based; settings: Homo sapiens; for inhibition at 100 µg/mL: HCT-116, 100 µg/ml, 48 h, read-out: Growth Inhibition (%) HCT-116
[4] = test system: P. aeruginosa (ATCC 27853); experiment: Disk diffusion antimicrobial test, P. aeruginosa; assay type: cell-based, Pseudomonas areuginosa; settings: Pseudomonas aeruginosa, ATCC27853, Gram-negative, 20 mg per disc (title), concentration 20 µg (footnote)
Procedure: as §1, §2

[5] = test system: MCF-7 (human breast cancer); experiment: MTT cytotoxicity assay, MCF-7; assay type: cell-based; settings: for inhibition at 100 µg/mL: MCF7, 100 µg/ml, 48 h, read-out: Growth Inhibition (%) MCF-7
Procedure: (§5) MCF-7 (human breast cancer), HCT-116 (human colon cancer) and HepG2 (human liver cancer) cell lines were obtained from Karolinska Institute, Stockholm, Sweden. All cells were maintained in RPMI 1640 medium. The media were supplemented with 10% heat-inactivated fetal bovine serum plus 1% antibiotic-antimycoticmixture (10,000 U/mL of potassium penicillin, 10,000 μg/mL of streptomycin sulfate, 25 μg/mL of amphotericin B and 1% of L glutamine (Biowest, USA)). BJ-1 of a human skin fibroblast derived from normal foreskin was obtained from ATCC® CRL-2522™ as a frozen ampoule with about 1 × 10^6 cells per 1 ml volume. BJ-1 was maintained in MEM with 2 mM of L-glutamine and Earle’s salts medium.
(§6) Cell viability was studied using the MTT 3-(4,5-dimethylthiazol-2-yl)-2,5-diphenyl-tetrazolium bromide (Bio Basic Canada Inc. Toronto, Canada) assay [33]. The steps were executed in a sterile laminar air flow cabinet biosafety class II level (Baker, SG403INT; Sanford, ME, USA). All incubations were carried out at 37 °C in a 5% CO2 incubator under a humidified atmosphere of 95% (Sheldon, TC2323; Cornelius, OR, USA). Cells were seeded into 96-well microtiter plastic plates at a concentration of (10^4 cells/well) and allowed to adhere for 24 h. The medium was aspirated and then added to the cells with the test compounds 11a–c, 12a–c, 13a–i, 14a–i and 15a,b at a single dose of 100 μg/mL in DMSO. After incubation of the medium for 48 h, 40 μL of MTT salt (2.5 μg/mL) was added to each well and then incubated for an additional 4 h. To stop the reaction and dissolve any formed formazan crystals, 200 μL of 10% sodium dodecyl sulfate (SDS) were added to each well and incubated overnight at 37 °C. The amount of formazan product was measured at 595 nm with a reference wavelength of 690 nm as a background using a microplate reader (Bio-Rad Laboratories, model 3350, California, USA). For the untreated cells (negative control), the medium was added instead of the tested compounds. […] Dimethylsulfoxide (DMSO) was the vehicle used for dissolution of the testing compound, and its final concentration on the cells was less than 0.2%. At the same dilution, the solvent concentration was the same for all drugs and between the control and drug treatments.

[6] = test system: normal skin fibroblast cells (BJ-1); experiment: MTT cytotoxicity assay, normal skin fibroblast BJ-1; assay type: cell-based; settings: Homo sapiens, 48 h, read-out: Growth Inhibition (%) BJ-1
Procedure: as §5, §6

Bcl-2 [7] = experiment: Bcl-2 ELISA in HCT-116 cells; assay type: cell-based, human; settings: HCT-116 cells treated at IC50 concentration; control 23.56 ± 3.56; mean ± SD
Description: (§3) The promising antiproliferative results reported for compounds 11a, 11b, 12a, 12b and 13c against cell lines under study have prompted us to investigate the mechanism of cell death induced by these compounds. Apoptosis induction was examined in both MCF-7 and HCT-116 cancer cells by assaying the level of its key protein markers, namely: proapoptotic (p53, Bcl 2-associated X, Bax and caspases3) and antiapoptotic (B-cell lymphoma-2, Bcl-2). MCF-7 and HCT-116 cells undergoing apoptosis was detected by use of the ELISA technique. Protein marker levels were quantified according to Bradford assay.
(§4) Briefly, cells ([…] and HCT) were seeded at a concentration of 1.2–1.8 × 10^3 cells/well in 6-well plates. After 48-h treatment, the collected cells were lysed and centrifuged at 10,000 rpm for 20 min at 4 °C. The protein concentration was measured in the supernatant by Bradford protein assay. Volume containing […] of total protein was incubated with […] of caspase substrate in […] of the reaction buffer at 37 °C for 1 h in the dark. Caspase-3 activity was determined by a microplate reader at 405 nm using a caspase-3 colorimetric assay kit (Abcam) according to the manufacturer’s instructions. In vitro protein level quantitative measurement of apoptotic marker p53, Bcl-2-associated X (Bax) and antiapoptotic marker B-cell lymphoma-2 (Bcl-2) in cell lysate were assessed by Enzyme-Linked Immunosorbent Assay Simple Step ELISA® (ab199080, ab119506 and ab171571; Abcam) according to the manufacturer’s instructions.

Bax [8] = experiment: Bax ELISA in HCT-116 cells; assay type: cell-based, human; settings: HCT-116 cells treated at IC50 concentration; control 118.54 ± 0.83; mean ± SD
Description: as §3, §4

p53 [9] = experiment: p53 ELISA in HCT-116 cells; assay type: cell-based, human; settings: HCT-116 cells treated at IC50 concentration; control 1.68 ± 0.06; mean ± SD
Description: as §3, §4

Bax [10] = experiment: Bax ELISA in MCF-7 cells; assay type: cell-based, human; settings: MCF-7 cells treated at IC50 concentration; control 39.56 ± 4.56; mean ± SD
Description: as §3, §4

p53 [11] = experiment: p53 ELISA in MCF-7 cells; assay type: cell-based, human; settings: MCF-7 cells treated at IC50 concentration; control 4.18 ± 0.58; mean ± SD
Description: as §3, §4

Bcl-2 [12] = experiment: Bcl-2 ELISA in MCF-7 cells; assay type: cell-based, human; settings: MCF-7 cells treated at IC50 concentration; control 25.13 ± 3.45; mean ± SD
Description: as §3, §4

[13] = test system: HepG-2 (human liver cancer); experiment: MTT cytotoxicity assay, HepG-2; assay type: cell-based
Procedure: as §5, §6

caspase-3 [14] = experiment: Caspase-3 colorimetric assay in HCT-116 cells; assay type: cell-based, human; settings: HCT-116 cells treated at IC50 concentration; control 13.60 ± 2.45; mean ± SD
Description: as §3, §4

caspase-3 [15] = experiment: Caspase-3 colorimetric assay in MCF-7 cells; assay type: cell-based, human
Description: as §3, §4

[16] = 15 min, read-out: Scavenging Activity (%) on DPPH radicals at 15 min
[17] = 30 min, read-out: Scavenging Activity (%) on DPPH radicals at 30 min
[18] = 45 min, read-out: Scavenging Activity (%) on DPPH radicals at 45 min
[19] = 60 min, read-out: Scavenging Activity (%) on DPPH radicals at 60 min

Compound	zone of inhibition at 20 µg/disc [1]	zone of inhibition at 20 µg/disc (C. albicans (ATCC 10231))	inhibition [2, 16]	inhibition [2, 17]	inhibition [2, 18]	inhibition [2, 19]	zone of inhibition at 20 µg/disc (B. subtilis (ATCC 6633))	inhibition at 100 µg/mL [3]	zone of inhibition at 20 µg/disc (S. aureus (ATCC 6538))	zone of inhibition at 20 µg/disc [4]	inhibition at 100 µg/mL [5]	inhibition at 100 µg/mL [6]	other results
C[C@@H]1[C@H](O)[C@@H](C)/C=C/C=C/C=C/C=C/C=C/C=C/C=C/[C@H](O[C@@H]2O[C@H](C)[C@@H](O)[C@H](N)[C@@H]2O)C[C@@H]2O[C@](O)(C[C@@H](O)C[C@@H](O)[C@H](O)CC[C@@H](O)C[C@@H](O)CC(=O)O[C@H]1C)C[C@H](O)[C@H]2C(=O)O [Amphotericin B, amphotericin B, reference compound]	23.5 mm	23.5 mm	–	–	–	–	–	–	–	–	–	–	zone of inhibition at 20 µg/disc (A. niger (NRRL A-326)): 26.7 mm
3-(6-Hydroxy-4,6-dimethoxybenzofuran-5-yl)quinoline-4-carboxylic acid [Compound 15b]	–	–	23.6 ± 1.36%	32.7 ± 1.13%	39.2 ± 1.29%	47.5%	–	–	–	–	–	–	Inhibition Zone (mm), B. subtilis (ATCC 6633) (B. subtilis (ATCC 6633); Gram-positive): 10 mm; Inhibition Zone (mm), S. aureus (ATCC 6538) (S. aureus (ATCC 6538); Gram-positive): 8 mm; Inhibition Zone (mm), C. albicans (ATCC 10231) (C. albicans (ATCC 10231); disk diffusion): 8 mm
CCOc1c(C2=NNC3(C2)C(=O)Nc2ccccc23)c(OC)c2ccoc2c1OC (centres unmarked) [Compound 12c, 5’-(6-Ethoxy-4,7-dimethoxy-benzofuran-5-yl)-2’,4’-dihydrospiro(indoline-3,3’-pyrazol)-2-one]	10 mm	10 mm	9.76 ± 1.76%	10.2 ± 1.26%	11.4 ± 1.53%	14 ± 1.55%	18 mm	12.4%	10 mm	20 mm	6.3%	62.3%	–
CC1(C)S[C@@H]2[C@H](NC(=O)[C@H](N)c3ccc(O)cc3)C(=O)N2[C@H]1C(=O)O [Amoxicillin, amoxicillin, reference compound]	–	–	–	–	–	–	28.4 mm	–	25.6 mm	–	–	–	–
O=C1Nc2ccccc2C12CC(c1cn(Cc3ccccc3)c3ccccc13)=NN2 (centres unmarked) [Compound 13c, 5’-(N-Benzyl-1H-indol-3-yl)-2’,4’-dihydrospiro(indoline-3,3’-pyrazol)-2-one]	–	–	14 ± 1.36%	21 ± 1.26%	24 ± 1.51%	35.1 ± 1.61%	–	97.9%	–	–	97.8%	5.1%	Bcl-2 (ng/50 mg Protein) (Bcl-2 [7]): 57.45 ± 6.45 ng/50 mg Protein; Bax (pg/50 mg Protein) (Bax [8]): 123.45 ±7.45 pg/50 mg Protein; p53 (pg/50 mg Protein) (p53 [9]): 2.34 ± 0.95 pg/50 mg Protein; IC50 ([3]; HCT-116, 48 h, 48 h post-treatment): 14.7 µg/mL (≈ 37.5 µM); Bax (pg/50 mg Protein) (Bax [10]): 88.34 ± 3.79 pg/50 mg Protein; p53 (Pg/50 mg Protein) (p53 [11]): 7.34 ± 1.5 Pg/50 mg Protein; Bcl-2 (ng/50 mg Protein) (Bcl-2 [12]): 44.5 ± 4.56 ng/50 mg Protein; inhibition at 100 µg/mL ([13]; HepG2, 100 µg/ml, 48 h, read-out: Growth Inhibition (%) HepG-2): 90.9%; IC50 ([13]; HepG2, 48 h post-treatment): 27 µg/mL (≈ 68.8 µM); Caspase-3 Activity % (caspase-3 [14]): 47.32 ± 6.32%; IC50 ([5]; MCF7, 48 h post-treatment): 24.1 µg/mL (≈ 61.4 µM); Caspase-3 Activity % (caspase-3 [15]; MCF-7 cells treated at IC50 concentration, control 10.2 ± 2.84, mean ± SD): 39.07 ± 4.97%; Elevation of active caspase-3 protein levels compared to the control (caspase-3 [15]; MCF-7 cells, IC50 concentration): ~3.8 folds
CCOc1cc2occc2c(OC)c1C1=NNC2(C1)C(=O)Nc1ccccc12 (centres unmarked) [Compound 11c, 5’-(6-Ethoxy-4-methoxy-benzofuran-5-yl)-2’,4’-dihydrospiro(indoline-3,3’-pyrazol)-2-one]	25 mm	25 mm	40.6 ± 1.28%	40.6 ± 1.81%	40.6 ± 1.67%	40.6 ± 1.35%	10 mm	30.2%	–	10 mm	0%	45.2%	melting point: 137 to 139 °C

Source: paper PMC7179167 (Molecules, 2020)
